# pIC50: −log10 of the molar value.
# Assays:
# IGROV1 CR cells = assay: SRB cell viability, synergy with cisplatin (combination index); assay type: cell-based, human
# Experimental: Given that And-1 phosphorylation was positively correlated with cisplatin resistance in OC according the Examples above, it was next determined whether And-1 phosphorylation contributes to cell survival in response to cisplatin. The cell viability to cisplatin in IGROV1, OV90 and mice ID80 cells overexpressed with FLAG-And-1-WT, FLAG-And-1-T826A and phosphomimetic FLAG-And-1-T826E was examined. In brief, cells were seeded in 96-well plate at a density of 3,000-5,000 cells per well and treated with indicated reagents for different concentration. Three days after treatment, the cell viability was measured by Sulforhodamine B (SRB) assay. The IC50 values and CI index were further determined by compusyn software. Every experiment was done in triplicate and repeated three times. […] To confirm And-1 was the primary target of ATR to promote platinum-resistance, the sensitivity of IGROV1 cells to cisplatin was examined using genetic analyses.
# To determine whether And-1 inhibitors can overcome cisplatin resistance in OC cells, the synergy of And-1 inhibitors and cisplatin in IGROV1 CR cells was examined.
# And-1 [1] = molecular target: T1, And-1 (Homo sapiens, UniProt O75717); assay: immunoblot analysis of And-1 expression in IGROV1 cells; assay type: cell-based; design: endogenous in cells; host or cells: IGROV1 CR
# T1 sequence (O75717 1-1129): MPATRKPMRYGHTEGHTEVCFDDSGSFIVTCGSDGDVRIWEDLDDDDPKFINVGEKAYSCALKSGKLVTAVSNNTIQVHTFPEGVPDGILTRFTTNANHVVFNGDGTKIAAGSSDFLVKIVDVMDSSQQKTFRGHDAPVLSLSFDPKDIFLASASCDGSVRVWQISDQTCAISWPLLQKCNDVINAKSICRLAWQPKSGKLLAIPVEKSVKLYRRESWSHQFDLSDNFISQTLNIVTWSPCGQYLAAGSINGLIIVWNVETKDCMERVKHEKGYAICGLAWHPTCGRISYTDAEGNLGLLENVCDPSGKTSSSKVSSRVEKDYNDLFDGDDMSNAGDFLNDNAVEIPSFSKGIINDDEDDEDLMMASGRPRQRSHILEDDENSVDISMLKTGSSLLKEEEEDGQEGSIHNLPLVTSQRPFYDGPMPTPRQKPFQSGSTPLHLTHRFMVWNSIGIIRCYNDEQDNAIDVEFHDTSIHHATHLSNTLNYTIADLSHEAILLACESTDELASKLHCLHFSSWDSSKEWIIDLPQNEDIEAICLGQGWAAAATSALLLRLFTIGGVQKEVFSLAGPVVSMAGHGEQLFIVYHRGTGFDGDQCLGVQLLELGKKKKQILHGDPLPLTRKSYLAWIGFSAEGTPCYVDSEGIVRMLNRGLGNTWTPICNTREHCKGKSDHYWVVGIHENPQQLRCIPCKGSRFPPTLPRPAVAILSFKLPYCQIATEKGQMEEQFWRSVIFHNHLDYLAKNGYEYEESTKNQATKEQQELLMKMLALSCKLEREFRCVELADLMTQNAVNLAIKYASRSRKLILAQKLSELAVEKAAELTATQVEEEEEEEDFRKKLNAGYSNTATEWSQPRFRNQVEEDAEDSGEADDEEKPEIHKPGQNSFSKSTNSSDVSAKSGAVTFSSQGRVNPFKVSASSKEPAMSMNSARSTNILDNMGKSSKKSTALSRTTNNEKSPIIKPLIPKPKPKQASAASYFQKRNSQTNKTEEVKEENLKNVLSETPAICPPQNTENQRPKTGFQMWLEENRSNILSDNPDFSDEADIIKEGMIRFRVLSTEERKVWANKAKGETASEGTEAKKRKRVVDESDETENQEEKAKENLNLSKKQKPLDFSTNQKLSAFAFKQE
# Experimental: The high IC50 of resveratrol compromises its potential clinical application; therefore, resveratrol was used as a lead compound to screen 12 analogs of resveratrol for potent compounds that can inhibit And-1 (FIG. 14). […] To perform immunoblot analyses, cells were first treated with increasing concentrations of the 12 analogs. After treatment, the cells were harvested and then lysed with RIPA buffer protease inhibitor and phosphatase inhibitor cocktail. Protein concentration was determined by the BCA protein assay. Equal amounts of whole cell lysates were separated on sodium dodecyl sulfate polyacrylamide gel electrophoresis (SDS-PAGE) and transferred onto nitrocellulose membranes. Membranes were then incubated in blocking solution (5% non-fat milk in 20 mM TRIS-HCl, 150 mM NaCl, 0.1% Tween-20) (TBST), followed by incubation with the indicated antibodies at 4° C. overnight. The membranes were then washed in TBST and incubated with HRP-conjugated secondary antibodies for 1 hour at room temperature (21° C.±2° C.). Antibody detection was performed with an enhanced chemiluminescence reaction.
# NCI 60 tumor cell lines = NCI 60 tumor cell lines growth assay; assay type: cell-based
# Experimental: To test this hypothesis, inhibition of CH3 on cancer cells was evaluated by using NCI 60 tumor cell lines.
# And-1 [2] = molecular target: T1, And-1; assay: immunoprecipitation of And-1 and anti-ubiquitin immunoblot in IGROV1 cells; assay type: cell-based; design: endogenous in cells; host or cells: IGROV1 CR
# Experimental: IGROV1 cells were treated with CH3 in the absence and presence of the 26S proteasome inhibitor MG132 (Benzyl N-[(2S)-4-methyl-1-[[(2S)-4-methyl-1-[[(2S)-4-methyl-1-oxopentan-2-yl]amino]-1-oxopentan-2-yl]amino]-1-oxopentan-2-yl]carbamate). […] Protein degradation through the proteasome requires conjugation of one or more ubiquitin molecules to the target. To address whether And-1 was modified by ubiquitin in IGROV1 cells treated with CH3, And-1 protein was immunoprecipitated and probed with anti-ubiquitin antibody.
smiles,measurement,setting,value
OB1OCc2cc(/C=C/c3ccc(Cl)c(Cl)c3)ccc21 [CH3],synergy with cisplatin to inhibit cell proliferation (combination index),IGROV1 CR cells,significant synergy
same,And-1 protein levels,"And-1 [1]; 5 μM for 48 hours, without MG132",reduced And-1 protein levels
same,pIC50,"And-1 [1]; immunoblot, read-out: IC50 for inhibition of And-1 expression",5.68
same,cancer cell growth inhibition,"NCI 60 tumor cell lines; 0.01-100 μM, 60 tumor cell lines",inhibited cancer cell growth in all 60 tumor cell lines in a dose dependent manner
same,mean growth percentage,"NCI 60 tumor cell lines; one dose assay, 10 μM, against 60 tumor cell lines",1.84%
same,ubiquitinated And-1 bands,And-1 [2],increased

# Source: US12258360B2, “Compositions and methods for treatment of anticancer-drug resistant cancers” (THE GEORGE WASHINGTON UNIVERSITY, priority 2020, dated 2025)
